Measured values reported in publication PMC8197855, “Peptide/β-Peptoid Hybrids with Activity against Vancomycin-Resistant Enterococci: Influence of Hydrophobicity and Structural Features on Antibacterial and Hemolytic Properties” (International Journal of Molecular Sciences, 2021).
Converted amounts (≈) assume the structure as drawn.

Columns and labels:
[1] = Hydrophobicity by analytical RP-HPLC (% MeCN at peak elution); assay type: physicochemical
Description: Water was filtered by using an Evoqua LaboStar PRO TWF Ultra Pure Water System prior to use in high-performance liquid chromatography (HPLC). The retention time for each peptidomimetic was determined by analytical HPLC using a Phenomenex Luna C18(2) HST column (100 mm × 3 mm; particle size: 2.5 μm; pore size: 100 Å) on a Shimadzu Prominence and Shimadzu Nexera system using an aqueous MeCN gradient with 0.1% trifluoroacetic acid (TFA) added (eluent A: 5:95 MeCN–H2O + 0.1% TFA; eluent B: 95:5 MeCN–H2O + 0.1% TFA); a flow rate of 0.5 mL/min was used. For the elution of peptidomimetics, a linear gradient of 0% to 60% B over 10 min was used with UV detection at λ = 220 nm. The percentage MeCN at peak elution was calculated from the retention time (tR) by using the following formula:%MeCN = [0.95 × 0.6 × tR/10 + 0.05 × (1 − 0.6 × tR/10)] × 100%

[2] = tested on: E. faecium (MV388); assay: Membrane integrity, propidium iodide uptake by flow cytometry; assay type: cell-based, Enterococcus faecium; conditions: peptidomimetics at MBC, nisin at MIC; 5 min
Description: Membrane integrity was assessed by using a propidium iodide (PI) uptake assay, as previously described. In brief, 2 μL of stationary enterococcal cultures were transferred to Falcon round-bottom tubes (14 mL; Corning), each containing 2 mL fresh BHI medium. Cultures were grown to an OD600 of 0.2 at 37 °C with shaking (180 rpm). […] Then, 15 μL of culture was transferred into 980 μL filtered phosphate-buffered saline, and then stained for 5 min with 5 μL of 0.1 mg/mL PI. After staining, the red fluorescence levels (FL3 channel) in cells were recorded by using a BD Biosciences Accuri C6 flow cytometer (Becton Dickinson). The settings of the flow cytometer were as follows: 25,000 recorded events at an FSC threshold of 15,000, and medium flow rate. The gating of the stained cell population and analysis of flow cytometry data were performed in CFlow (BD Accuri). The assessment of membrane integrity was performed in three biological replicates for each condition.

[3] = tested on: E. faecium (MV388); assay type: cell-based, Enterococcus faecium; conditions: MV388, 24 h
Description: (§1) The minimum bactericidal concentration (MBC) is defined as the lowest concentration of the peptidomimetics that kills 99.9% of the bacterial population. All experiments were performed in three biological replicates.

[4] = tested on: E. faecalis ATCC 29212; assay: Time-kill kinetics; assay type: cell-based, Enterococcus faecalis; conditions: for Reduction in viable bacteria (time-kill): 4× MIC (compound 2: 8 µg/mL, 2–4× MIC), 5 h exposure, BHI broth
Description: (§2) Time–kill kinetics were established for compounds 2, 5 and 10 in E. faecium ATCC 19434 and E. faecalis ATCC 29212. Prior to the experiments, the isolates were incubated on BHI agar supplemented with 5% calf blood at 37 °C overnight (ON). For each of the strains 1-2 colonies were transferred into 4 mL BHI broth and incubated ON at 37 °C with shaking (180 rpm). OD600 was measured, and then cultures were diluted with BHI broth to an OD600 of 0.05 and grown for approximately 2 h to reach the exponential phase.
(§3) One untreated control per strain was prepared. The inoculum was quantified by plating and subsequently enumerated. The initial inocula were approximately 10^7 CFU/mL. Two controls were included, both without bacteria and one including the respective compound without bacteria. All tubes were incubated at 37 °C with shaking (180 rpm). Samples of 100 µL were taken after 1 h, 3 h and 5 h of exposure. Appropriate dilutions were spread onto BHI agar plates and incubated at 37 °C overnight, and then colonies were enumerated. Plates were incubated for 24 h and 48 h, and then checked for the appearance of slow-growing colonies. The experiments were performed with at least three biological replicates for each condition and time point.

[5] = tested on: E. faecium ATCC 19434; assay: Time-kill kinetics; assay type: cell-based, Enterococcus faecium; conditions: for Reduction in viable bacteria (time-kill): up to 5 h exposure, BHI broth
Description: as §2, §3

[6] = tested on: E. faecalis 38262; assay: microbe, parasite or virus in culture; assay type: cell-based, Enterococcus faecalis; conditions: 38262, 24 h
Description: (§4) Overnight cultures of the enterococcal isolates were diluted in physiological saline (0.9% NaCl) to reach a turbidity of 0.5 McFarland units (Sensititre® nephelometer and the Sensititre® McFarland Standard). Bacterial suspensions were adjusted to 5 × 10^5 CFU/mL in MHB II or BHI broth containing two-fold dilutions of peptidomimetics or conventional antibiotics in a final volume of 100 µL. The plates were incubated for 24 h at 37 °C without shaking. […] All experiments were performed in three biological replicates.

[7] = tested on: E. faecalis 39002; assay: microbe, parasite or virus in culture; assay type: cell-based, Enterococcus faecalis; conditions: 39002, 24 h
Description: as §4

[8] = tested on: E. faecium ATCC 19434; assay: microbe, parasite or virus in culture; assay type: cell-based, Enterococcus faecium; conditions: ATCC 19434, 24 h
Description: as §4, with “replicates. […]” for “replicates.”

[9] = tested on: E. faecium 2961; assay: microbe, parasite or virus in culture; assay type: cell-based, Enterococcus faecium; conditions: 2961, 24 h
Description: as §4

[10] = tested on: E. faecium D344R; assay: microbe, parasite or virus in culture; assay type: cell-based, Enterococcus faecium; conditions: E. faecium D344R, human clinical isolate; 24 h
Description: as §4

[11] = tested on: E. faecium 1798; assay: microbe, parasite or virus in culture; assay type: cell-based, Enterococcus faecium; conditions: 1798, 24 h
Description: as §4

[12] = tested on: E. faecium 3978; assay: microbe, parasite or virus in culture; assay type: cell-based, Enterococcus faecium; conditions: 3978, 24 h
Description: as §4

[13] = tested on: E. faecalis (MV269); assay type: cell-based, Enterococcus faecalis; conditions: MV269, 24 h
Description: as §1

[14] = tested on: E. faecalis ATCC 29212; assay: microbe, parasite or virus in culture; assay type: cell-based, Enterococcus faecalis; conditions: ATCC 29212, 24 h
Description: as §4, with “replicates. […]” for “replicates.”

SMILES | Hydrophobicity, Luna C18(2) HST (0–60% B; 10 min), retention converted into % MeCN [1] [% MeCN] | Propidium iodide (PI) uptake, membrane integrity [2] | Minimum bactericidal concentration [3] [µg/mL] | Reduction in viable bacteria (time-kill) [4] | Bactericidal or bacteriostatic mode of action ([5]; 8 µg/mL (4× MIC)) | Reduction in viable bacteria (time-kill) ([5]; 4× MIC) | Minimum inhibitory concentration [6] [µg/mL] | Minimum inhibitory concentration [7] [µg/mL] | Minimum inhibitory concentration [8] [µg/mL] | Minimum inhibitory concentration [9] [µg/mL] | Minimum inhibitory concentration [10] [µg/mL] | Minimum inhibitory concentration [11] [µg/mL] | Minimum inhibitory concentration [12] [µg/mL] | Minimum bactericidal concentration [13] [µg/mL] | Minimum inhibitory concentration [14] [µg/mL] | Reduction in viable cell counts within 1 h ([4]; 4× MIC, within 1 h of exposure) | Reduction in viable cell counts within 1 h ([5]; 4× MIC, within 1 h of exposure)
CC(=O)N[C@@H](CCCCNC(=N)N)C(=O)N(CCC(=O)N[C@@H](CCCCNC(=N)N)C(=O)N(CCC(=O)N[C@@H](CCCCNC(=N)N)C(=O)N(CCC(=O)N[C@@H](CCCCNC(=N)N)C(=O)N(CCC(=O)N[C@@H](CCCCNC(=N)N)C(=O)N(CCC(=O)N[C@@H](CCCCNC(=N)N)C(=O)N(CCC(N)=O)[C@@H](C)C1CCCCC1)[C@@H](C)C1CCCCC1)[C@@H](C)C1CCCCC1)[C@@H](C)C1CCCCC1)[C@@H](C)C1CCCCC1)[C@@H](C)C1CCCCC1 [Compound 2, Ac-[hArg-βNsce]6-NH2] | 51.6 | significant accumulation of PI | 4 to 8 | approximately 2 log | bactericidal | approximately 3 log | 4 (≈ 1.84 µM) | 2 (≈ 0.922 µM) | 2 (≈ 0.922 µM) | 2 (≈ 0.922 µM) | 2 (≈ 0.922 µM) | 2 (≈ 0.922 µM) | 2 (≈ 0.922 µM) | 8 (≈ 3.69 µM) | 2 to 4 |  | 
CC(=O)N[C@@H](CCCCNC(=N)N)C(=O)N(CCC(=O)N[C@@H](CCCCN)C(=O)N(CCC(=O)N[C@@H](CCCCNC(=N)N)C(=O)N(CCC(=O)N[C@@H](CCCCN)C(=O)N(CCC(=O)N[C@@H](CCCCNC(=N)N)C(=O)N(CCC(=O)N[C@@H](CCCCN)C(=O)N(CCC(N)=O)[C@@H](C)c1ccccc1)[C@@H](C)C1CCCCC1)[C@@H](C)c1ccccc1)[C@@H](C)C1CCCCC1)[C@@H](C)c1ccccc1)[C@@H](C)C1CCCCC1 [Compound 5, Ac-[hArg-βNsce-Lys-βNspe]3-NH2] | 46.6 | less perturbation of membrane integrity | 128 (≈ 63.2 µM) | 3 log |  | 1.5 log | 8 to 16 | 8 to 16 | 4 (≈ 1.98 µM) | 2 (≈ 0.988 µM) | 2 (≈ 0.988 µM) | 2 (≈ 0.988 µM) | 2 (≈ 0.988 µM) | 16 (≈ 7.91 µM) | 4 to 8 | no reduction in viable cell counts | no reduction in viable cell counts
CCCCCCCC(=O)N[C@@H](CCCCN)C(=O)N(CCC(=O)N[C@@H](CCCCN)C(=O)N(CCC(=O)N[C@@H](CCCCN)C(=O)N(CCC(=O)N[C@@H](CCCCN)C(=O)N(CCC(=O)N[C@@H](CCCCN)C(=O)N(CCC(=O)N[C@@H](CCCCN)C(=O)N(CCC(N)=O)[C@@H](C)c1ccccc1)[C@@H](C)c1ccccc1)[C@@H](C)c1ccccc1)[C@@H](C)c1ccccc1)[C@@H](C)c1ccccc1)[C@@H](C)c1ccccc1 [Compound 10, Oct-[Lys-βNspe]6-NH2] | 47.2 | less perturbation of membrane integrity | 16 (≈ 8.15 µM) | 5 log |  | 4 log | 16 (≈ 8.15 µM) | 8 (≈ 4.07 µM) | 8 (≈ 4.07 µM) | 4 (≈ 2.04 µM) | 4 (≈ 2.04 µM) | 2 to 4 | 2 to 4 | 32 (≈ 16.3 µM) | 8 to 16 |  | 
